Assay results published in PubChem BioAssay (NCI).
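1) Cells in 96-well plates. 2) Compound, 48 h, 5 concentrations. 3) Linear interpolation between surrounding doses. 4) Unreached endpoint = highest concentration. TGI denotes the concentration required for complete inhibition of growth.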

What was measured:
Experiment in all cases: DTP human tumour cell line panel, 48 h
[1] = system: OVCAR-4 ovarian
[2] = system: MDA-N
[3] = system: EKVX NSCLC
[4] = system: BT-549 breast
[5] = system: SW-620 colon
[6] = system: M14 melanoma
[7] = system: UACC-62 melanoma
[8] = system: UACC-257 melanoma
[9] = system: SNB-75 CNS
[10] = system: 786-0 renal
[11] = system: RXF 393 renal
[12] = system: SN12C renal
[13] = system: NCI-H226 lung
[14] = system: ACHN renal
[15] = system: SF-295 CNS
[16] = system: SF-268 CNS
[17] = system: K-562 leukemia
[18] = system: HCT-15 colon
[19] = system: SK-MEL-5 melanoma
[20] = system: SK-OV-3 ovarian
[21] = system: A549 NSCLC
[22] = system: PC-3 prostate
[23] = system: HS 578T breast
[24] = system: RPMI-8226 leukemia
[25] = system: HT29 colon
[26] = system: NCI/ADR-RES ovarian
[27] = system: HCC-2998 colon
[28] = system: SNB-19 CNS
[29] = system: KM12 colon
[30] = system: IGROV1 ovarian
[31] = system: T-47D breast
[32] = system: CAKI-1 renal
[33] = system: MDA-MB-231 breast
[34] = system: HOP-62 NSCLC
[35] = system: MOLT-4 leukemia
[36] = system: A498 renal
[37] = system: OVCAR-8 ovarian
[38] = system: MCF7 breast
[39] = system: OVCAR-5 ovarian
[40] = system: UO-31 renal
[41] = system: MALME-3M melanoma
[42] = system: NCI-H460 lung
[43] = system: DU-145 prostate
[44] = system: CCRF-CEM leukemia
[45] = system: HCT-116 colon
[46] = system: MDA-MB-435
[47] = system: SK-MEL-2 melanoma
[48] = system: U251 CNS
[49] = system: COLO 205 colon
[50] = system: OVCAR-3 ovarian
[51] = system: SR leukemia
[52] = system: NCI-H23 lung
[53] = system: LOX IMVI melanoma
[54] = system: HL-60(TB) leukemia
[55] = system: SK-MEL-28 melanoma
[56] = system: SF-539 CNS
[57] = system: NCI-H522 lung
[58] = system: TK-10 renal

CCOC(=O)c1nnsc1NC(=O)NCCCCCCn1c(=O)n(CCCCCCNC(=O)Nc2snnc2C(=O)OCC)c(=O)n(CCCCCCNC(=O)Nc2snnc2C(=O)OCC)c1=O
TGI [1]: > 100 µM | TGI [2]: > 100 µM | TGI [3]: > 100 µM | TGI [4]: > 100 µM | TGI [5]: > 100 µM | TGI [6]: > 100 µM | TGI [7]: 35.1 µM | TGI [8]: > 100 µM | TGI [9]: 83 µM | TGI [10]: 30.3 µM | TGI [11]: 86.2 µM | TGI [12]: > 100 µM | TGI [13]: 47.7 µM | TGI [14]: > 100 µM | TGI [15]: > 100 µM | TGI [16]: 48.4 µM | TGI [17]: > 100 µM | TGI [18]: > 100 µM | TGI [19]: > 100 µM | TGI [20]: > 100 µM | TGI [21]: > 100 µM | TGI [22]: > 100 µM | TGI [23]: 50 µM | TGI [24]: 46.4 µM | TGI [25]: > 100 µM | TGI [26]: > 100 µM | TGI [27]: > 100 µM | TGI [28]: 38.2 µM | TGI [29]: > 100 µM | TGI [30]: > 100 µM | TGI [31]: > 100 µM | TGI [32]: > 100 µM | TGI [33]: 41.1 µM | TGI [34]: 69.8 µM | TGI [35]: > 100 µM | TGI [36]: > 100 µM | TGI [37]: > 100 µM | TGI [38]: > 100 µM | TGI [39]: > 100 µM | TGI [40]: > 100 µM | TGI [41]: 53.2 µM | TGI [42]: 44.3 µM | TGI [43]: > 100 µM | TGI [44]: > 100 µM | TGI [45]: > 100 µM | TGI [46]: > 100 µM | TGI [47]: > 100 µM | TGI [48]: 36.8 µM | TGI [49]: > 100 µM | TGI [50]: > 100 µM | TGI [51]: > 100 µM | TGI [52]: 90.4 µM

NC(=O)c1nnsc1N/N=C/c1ccc([N+](=O)[O-])cc1
TGI [1]: > 100 µM | TGI [2]: > 100 µM | TGI [3]: > 100 µM | TGI [4]: 88.6 µM | TGI [5]: > 100 µM | TGI [6]: > 100 µM | TGI [7]: > 100 µM | TGI [53]: > 100 µM | TGI [8]: > 100 µM | TGI [9]: > 100 µM | TGI [10]: > 100 µM | TGI [11]: > 100 µM | TGI [12]: > 100 µM | TGI [13]: > 100 µM | TGI [14]: > 100 µM | TGI [15]: > 100 µM | TGI [16]: > 100 µM | TGI [17]: > 100 µM | TGI [18]: > 100 µM | TGI [19]: > 100 µM | TGI [20]: > 100 µM | TGI [21]: > 100 µM | TGI [22]: > 100 µM | TGI [23]: > 100 µM | TGI [24]: > 100 µM | TGI [25]: > 100 µM | TGI [26]: > 100 µM | TGI [27]: > 100 µM | TGI [28]: > 100 µM | TGI [29]: > 100 µM | TGI [30]: > 100 µM | TGI [31]: > 100 µM | TGI [54]: > 100 µM | TGI [55]: > 100 µM | TGI [32]: > 100 µM | TGI [33]: > 100 µM | TGI [34]: > 100 µM | TGI [35]: > 100 µM | TGI [36]: > 100 µM | TGI [37]: > 100 µM | TGI [38]: > 100 µM | TGI [39]: > 100 µM | TGI [56]: > 100 µM | TGI [40]: > 100 µM | TGI [41]: > 100 µM | TGI [42]: > 100 µM | TGI [43]: > 100 µM | TGI [44]: > 100 µM | TGI [45]: > 100 µM | TGI [46]: > 100 µM | TGI [47]: > 100 µM | TGI [48]: > 100 µM | TGI [49]: > 100 µM | TGI [50]: > 100 µM | TGI [51]: > 100 µM | TGI [57]: > 100 µM | TGI [52]: > 100 µM

CCC1(CC)C(=O)N(C(=O)c2ccc(C)cc2)N(C(=O)c2ccc(C)cc2)C1=O
TGI [1]: > 75 µM | TGI [2]: > 75 µM | TGI [3]: > 75 µM | TGI [4]: > 75 µM | TGI [5]: > 75 µM | TGI [6]: > 75 µM | TGI [7]: > 75 µM | TGI [53]: > 75 µM | TGI [8]: > 75 µM | TGI [9]: > 75 µM | TGI [10]: > 75 µM | TGI [11]: > 75 µM | TGI [12]: > 75 µM | TGI [13]: > 75 µM | TGI [14]: > 75 µM | TGI [15]: > 75 µM | TGI [16]: > 75 µM | TGI [17]: > 75 µM | TGI [18]: > 75 µM | TGI [19]: > 75 µM | TGI [20]: > 75 µM | TGI [21]: > 75 µM | TGI [22]: > 75 µM | TGI [23]: > 75 µM | TGI [24]: > 75 µM | TGI [25]: > 75 µM | TGI [26]: > 75 µM | TGI [27]: > 75 µM | TGI [58]: > 75 µM | TGI [28]: > 75 µM | TGI [29]: > 75 µM | TGI [30]: > 75 µM | TGI [31]: > 75 µM | TGI [54]: > 75 µM | TGI [55]: > 75 µM | TGI [32]: > 75 µM | TGI [33]: > 75 µM | TGI [34]: > 75 µM | TGI [35]: 58.5 µM | TGI [37]: > 75 µM | TGI [38]: > 75 µM | TGI [39]: > 75 µM | TGI [40]: > 75 µM | TGI [41]: 62.7 µM | TGI [42]: > 75 µM | TGI [43]: > 75 µM | TGI [44]: > 75 µM | TGI [45]: > 75 µM | TGI [46]: > 75 µM | TGI [47]: > 75 µM | TGI [48]: > 75 µM | TGI [49]: > 75 µM | TGI [50]: 46.4 µM | TGI [51]: 68.8 µM | TGI [57]: 51.6 µM | TGI [52]: > 75 µM
